Patent US20230024584A1, “ANTI-CANCER COMPOSITIONS AND METHODS” (University of Kentucky Research Foundation, priority 2019, published 2023)

Experiments:
Assay type in all cases: cell-based
[1] = tested on: H1975, PC9, PC9GR4 and H460 cells; assay: Clonogenic assay, lung cancer cell lines; details: 1.25, 2.5 or 5 μM for 72 h, then 10 days culture
Protocol: Clonogenic assays were also performed to determine the effect of lomitapide treatment on various lung cancer cell lines, with data reflected in FIGS. 28A-28E. Initially, 100 H1975, PC9, PC9GR4, or H460 cells were seeded into 6-cm cell culture dishes. After overnight culture, vehicle control (DMSO) or lomitapide (final concentration: 1.25, 2.5 or 5 μM) were added into the corresponding dishes. After 72 h culture, the DMSO- or lomitapide-containing media were removed and the fresh culture media were added in followed by additional 10 days culture. The culture media were replaced with fresh media every three days. At the end of cell culture, the final clones in dishes were fixed by 4% paraformaldehyde and stained with crystal violet. FIG. 28A includes representative images from each treatment groups. FIGS. 28B-28E include quantitation of clone numbers (mean±standard deviation, n=3). * p<0.05, compared to vehicle control (negative control) treatment group.

[2] = tested on: MCF-7, LM2 and 4T1luc cells; assay: Apoptosis (7-AAD/APC-annexin V flow cytometry), breast cancer cells; details: 1.25, 2.5 or 5 μM, 48 h
Protocol: (§1) With reference to FIGS. 26A-26C, studies were also conducted to determine the effect of lomitapide treatment on apoptosis of breast cancer cells. Initially, 0.1-0.3 million MCF-7, LM2 or 4T1^luc cells were seeded into 6 cm cell culture dishes and cultured overnight. Vehicle control (DMSO) or lomitapide (final concentration: 1.25, 2.5 or 5 μM) was added then into corresponding dishes. After 48 h incubation, the cells were harvested, stained by 7-AAD/APC-annixin V and analyzed by flow cytometry. The results are presented as mean±standard deviation (n=3). * p<0.05, compared to vehicle control (negative control) treatment group.

PC9GR4 and A549 cells [3] = assay: Apoptosis (7-AAD/APC-annexin V flow cytometry), lung cancer cells; details: 1.25, 2.5 or 5 μM, 48 h
Protocol: as §1, with “29A and 29B,” for “26A-26C,”, “lung” for “breast”, “PC9GR4” for “MCF-7, LM2”, “A549” for “4T1^luc”

PC9GR4 and A549 cells [4] = assay: Sphere formation assay, lung cancer cells; details: 1.25, 2.5 or 5 μM, 10 days
Protocol: With reference to FIGS. 30A and 30B, studies were also conducted to determine the effect of lomitapide treatment on the cancer stem cell-like property of lung cancer cells. Initially, 2500 lung cancer PC9GR4 or A549 cells were seeded into […] 24-well plates; meanwhile, vehicle control (DMSO) or lomitapide (final concentration: 1.25, 2.5 or 5 μM) were added into corresponding wells. After 10-days continuous culture, the final spheres formed were imaged and counted under an inverted phase-contrast microscope. FIG. 30A includes representative sphere images from each treatment groups. FIG. 30B includes the quantitation of sphere numbers (mean±standard deviation, n=3). * p<0.05, compared to vehicle control (negative control) treatment group.

breast cancer cells = assay: Cell cycle analysis, breast cancer cells; details: 5 μM; 24, 48 and 72 h
Protocol: Initially, 0.1˜0.3 million of breast cancer cells were seeded into 6 cm culture dish and cultured overnight; then, the culture media were switched into FBS free medium for serum-starvation for 24 h for cell synchronization. After synchronization, the culture media were changed into FBS-containing medium and vehicle control (DMSO) or lomitapide (final concentration: 5 μM) were added into corresponding dishes. After 24, 48 and 72 h culture, cells were harvested, fixed by ice-cold ethanol, stained by PI for flow cytometry analysis of cell cycle. The results are presented as mean±standard deviation (n=3). * p<0.05, compared to vehicle control (negative control) treatment group.

Substance: lomitapide
- lung cancer cell growth (clone numbers) [1]: significantly reduces lung cancer cell growth
- apoptosis [2]: induces apoptosis
- apoptosis (PC9GR4 and A549 cells [3]): induces apoptosis
- cancer stem cell-like property (sphere numbers) (PC9GR4 and A549 cells [4]): significantly reduces cancer stem cell-like property
- cell cycle distribution (breast cancer cells): significant G1 phase cell cycle arrest
